In paper PMC9029089, “1,5-Disubstituted Acylated 2-Amino-4,5-dihydroimidazoles as a New Class of Retinoic Acid Receptor–Related Orphan Receptor (ROR) Inhibitors” (International Journal of Molecular Sciences, 2022):

Target: T1, RORγ (Mus musculus, UniProt P51450)
T1 construct: mRORγ (Pro-261-end); expressed in transfected cells
T1 sequence (P51450 261-516 limits assumed): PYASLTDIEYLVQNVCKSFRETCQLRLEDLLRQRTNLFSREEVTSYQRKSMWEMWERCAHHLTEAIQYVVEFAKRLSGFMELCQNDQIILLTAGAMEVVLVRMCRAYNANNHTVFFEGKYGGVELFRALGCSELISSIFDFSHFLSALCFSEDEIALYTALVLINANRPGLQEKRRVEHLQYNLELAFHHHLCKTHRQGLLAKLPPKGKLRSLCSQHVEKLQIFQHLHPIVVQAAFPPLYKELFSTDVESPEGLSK
Assay: Gal4-RORγ-LBD UAS-luciferase reporter assay in TRex-CHO-K1 cells (doxycycline-stimulated)
Assay type: cell-based
Conditions: individual controls 1295.201-307, 5 μg/ml, triplicate
Text: The Gal4-DBD-ROR-LBD fusion proteins were subcloned in the pcDNA4/TO expression vector (Thermo Scientific) and transfected into TRex-CHO-K1 cells (Thermo Scientific) for tetracycline-controlled expression of the corresponding ROR proteins. Transfected cells were selected with hygromycin and Zeocin and individual clones for each of the Gal4-RORγ, Gal4-RORα, and Gal4-RORβ cell lines were isolated using a standard serial dilution protocol. Clones with the highest doxycycline-dependent stimulation of luciferase activity were selected for all functional experiments.
For screening FIU libraries, cells were resuspended in Ham’s F-12 assay medium containing 2% charcoal-treated FBS and no selection drugs. […] Cells were allowed to attach for 2 h, followed by compound treatment and stimulation with 20 ng/mL doxycycline for an additional 16–20 h. Appropriate solvent controls, negative controls with no doxycycline, and blanks with no cells were included in every plate. Prior to measuring luciferase activity, 6 µL of 0.15 mg/mL resazurin (Cayman Chemical) in PBS were added and cells were incubated for 1 h at 37 °C. Fluorescence intensity was detected at 545 nm excitation/590 nm emission using a CLARIOstar reader (BMGLabtech) as a measure of cell viability, to identify any potential cytotoxic effect of test compounds and mixtures.
Luminescence was normalized by the fluorescence intensity and the percentage of inhibition was calculated with respect to control cells stimulated with doxycycline in the presence of solvent control (0.1% DMF). All primary screens with individual compounds were performed in triplicate with a final concentration of 5 µg/mL. […] IC50 values were calculated using GraphPrism (GraphPad software).

SMILES | % Inhibition RORγ 5 μg/ml [%]
CCC(CN1C(NC(=O)Cc2ccccc2)=NCC1Cc1ccccc1)c1ccccc1 (mixture of isomers) [1295.235] | 35.8
CC(CCN1C(NC(=O)Cc2ccccc2)=NCC1Cc1ccccc1)c1ccccc1 (mixture of isomers) [1295.236] | 26.8
CC(C)Cc1ccc(C(C)CN2C(NC(=O)Cc3ccccc3)=NCC2Cc2ccccc2)cc1 (mixture of isomers) [1295.245] | 21.5
CCC(C)CN1C(NC(=O)Cc2ccccc2)=NCC1Cc1ccccc1 (mixture of isomers) [1295.256] | -8.1
CC(C)Cc1ccc(C(C)C(=O)NC2=NCC(Cc3ccccc3)N2CCc2ccccc2)cc1 (mixture of isomers) [1295.283] | 58.6
CCC(C)C(=O)NC1=NCC(Cc2ccccc2)N1CCc1ccccc1 (mixture of isomers) [1295.296] | 41.7
C[C@H]1CN=C(NC(=O)Cc2ccccc2)N1CCc1ccccc1 [1295.201] | -40.7
O=C(Cc1ccccc1)NC1=NC[C@H](Cc2ccccc2)N1CCc1ccccc1 [1295.202] | 0.0
O=C(Cc1ccccc1)NC1=NCCN1CCc1ccccc1 [1295.203] | -29.5
CC(C)C[C@H]1CN=C(NC(=O)Cc2ccccc2)N1CCc1ccccc1 [1295.205] | 54.1
CC(C)[C@H]1CN=C(NC(=O)Cc2ccccc2)N1CCc1ccccc1 [1295.206] | 32.7
O=C(Cc1ccccc1)NC1=NC[C@H](Cc2ccc(O)cc2)N1CCc1ccccc1 [1295.207] | -85.0
C[C@@H]1CN=C(NC(=O)Cc2ccccc2)N1CCc1ccccc1 [1295.208] | -9.3
O=C(Cc1ccccc1)NC1=NC[C@@H](Cc2ccccc2)N1CCc1ccccc1 [1295.209] | 46.8
CC(C)C[C@@H]1CN=C(NC(=O)Cc2ccccc2)N1CCc1ccccc1 [1295.211] | 38.8
CC(C)[C@@H]1CN=C(NC(=O)Cc2ccccc2)N1CCc1ccccc1 [1295.212] | 33.3
CC1(C)CN=C(NC(=O)Cc2ccccc2)N1CCc1ccccc1 [1295.214] | 1.6
CCC[C@H]1CN=C(NC(=O)Cc2ccccc2)N1CCc1ccccc1 [1295.215] | 31.5
CCC[C@@H]1CN=C(NC(=O)Cc2ccccc2)N1CCc1ccccc1 [1295.216] | 24.5
CCCC[C@H]1CN=C(NC(=O)Cc2ccccc2)N1CCc1ccccc1 [1295.217] | 13.0
CCCC[C@@H]1CN=C(NC(=O)Cc2ccccc2)N1CCc1ccccc1 [1295.218] | -11.7
O=C(Cc1ccccc1)NC1=NC[C@H](c2ccccc2)N1CCc1ccccc1 [1295.219] | 0.1
O=C(Cc1ccccc1)NC1=NC[C@@H](c2ccccc2)N1CCc1ccccc1 [1295.220] | -5.2

SMILES | % Inhibition RORγ 5 μg/ml [%]
O=C(Cc1ccccc1)NC1=NC[C@H](Cc2ccc3ccccc3c2)N1CCc1ccccc1 [1295.221] | 31.3
O=C(Cc1ccccc1)NC1=NC[C@@H](Cc2ccc3ccccc3c2)N1CCc1ccccc1 [1295.222] | 22.4
O=C(Cc1ccccc1)NC1=NC[C@H](CC2CCCCC2)N1CCc1ccccc1 [1295.223] | 3.4
O=C(Cc1ccccc1)NC1=NC[C@@H](CC2CCCCC2)N1CCc1ccccc1 [1295.224] | 9.6
O=C(Cc1ccccc1)NC1=NC[C@H](Cc2ccc(Cl)cc2)N1CCc1ccccc1 [1295.225] | -32.6
O=C(Cc1ccccc1)NC1=NC[C@@H](Cc2ccc(Cl)cc2)N1CCc1ccccc1 [1295.226] | 6.9
O=C(Cc1ccccc1)NC1=NC[C@H](Cc2ccc(F)cc2)N1CCc1ccccc1 [1295.227] | -8.2
O=C(Cc1ccccc1)NC1=NC[C@@H](Cc2ccc(F)cc2)N1CCc1ccccc1 [1295.228] | 31.3
O=C(Cc1ccccc1)NC1=NC[C@H](Cc2cccnc2)N1CCc1ccccc1 [1295.229] | -23.1
O=C(Cc1ccccc1)NC1=NC[C@@H](Cc2cccnc2)N1CCc1ccccc1 [1295.230] | -16.0
CC(C)(C)[C@H]1CN=C(NC(=O)Cc2ccccc2)N1CCc1ccccc1 [1295.231] | -31.5
CC(C)(C)[C@@H]1CN=C(NC(=O)Cc2ccccc2)N1CCc1ccccc1 [1295.232] | 8.2
CCOc1ccc(C[C@H]2CN=C(NC(=O)Cc3ccccc3)N2CCc2ccccc2)cc1 [1295.233] | 31.0
CCOc1ccc(C[C@@H]2CN=C(NC(=O)Cc3ccccc3)N2CCc2ccccc2)cc1 [1295.234] | -7.7
Cc1cccc(CCN2C(NC(=O)Cc3ccccc3)=NC[C@@H]2Cc2ccccc2)c1 [1295.237] | -4.8
O=C(Cc1ccccc1)NC1=NC[C@H](Cc2ccccc2)N1CCc1cccc(F)c1 [1295.238] | 34.6
O=C(Cc1ccccc1)NC1=NC[C@H](Cc2ccccc2)N1CCc1cccc(Br)c1 [1295.239] | 47.8
O=C(Cc1ccccc1)NC1=NC[C@H](Cc2ccccc2)N1CCc1ccc(F)cc1 [1295.240] | 52.2
COc1cccc(CCN2C(NC(=O)Cc3ccccc3)=NC[C@@H]2Cc2ccccc2)c1 [1295.241] | 7.4
O=C(Cc1ccccc1)NC1=NC[C@H](Cc2ccccc2)N1CCc1ccc(Br)cc1 [1295.242] | 67.1
COc1ccc(CCN2C(NC(=O)Cc3ccccc3)=NC[C@@H]2Cc2ccccc2)cc1 [1295.243] | 27.2
CCOc1ccc(CCN2C(NC(=O)Cc3ccccc3)=NCC2Cc2ccccc2)cc1 (stereo not shown) [1295.244] | 5.9
O=C(Cc1ccccc1)NC1=NC[C@H](Cc2ccccc2)N1CCc1cc(C(F)(F)F)cc(C(F)(F)F)c1 [1295.246] | 20.0

SMILES | % Inhibition RORγ 5 μg/ml [%]
COc1ccc(CCCN2C(NC(=O)Cc3ccccc3)=NC[C@H]2Cc2ccccc2)cc1OC [1295.247] | 32.5
COc1ccc(CCN2C(NC(=O)Cc3ccccc3)=NC[C@@H]2Cc2ccccc2)cc1OC [1295.249] | 42.2
O=C(Cc1ccccc1)NC1=NC[C@H](Cc2ccccc2)N1CCc1ccccc1 [1295.250] | 9.9
O=C(Cc1ccccc1)NC1=NC[C@H](Cc2ccccc2)N1CCCc1ccccc1 [1295.251] | -112.4
O=C(Cc1ccccc1)NC1=NC[C@H](Cc2ccccc2)N1CCCCc1ccccc1 [1295.252] | -2.3
CCCCN1C(NC(=O)Cc2ccccc2)=NC[C@@H]1Cc1ccccc1 [1295.253] | -12.1
CCCCCCCN1C(NC(=O)Cc2ccccc2)=NC[C@@H]1Cc1ccccc1 [1295.254] | 48.4
CC(C)CN1C(NC(=O)Cc2ccccc2)=NC[C@@H]1Cc1ccccc1 [1295.255] | -9.8
CC(C)CCN1C(NC(=O)Cc2ccccc2)=NC[C@@H]1Cc1ccccc1 [1295.257] | -28.5
CC(C)(C)CN1C(NC(=O)Cc2ccccc2)=NC[C@@H]1Cc1ccccc1 [1295.259] | -25.1
O=C(Cc1ccccc1)NC1=NC[C@H](Cc2ccccc2)N1CC1CCCCC1 [1295.260] | -10.7
O=C(Cc1ccccc1)NC1=NC[C@H](Cc2ccccc2)N1CC1CCCCCC1 [1295.263] | -8.4
CCN1C(NC(=O)Cc2ccccc2)=NC[C@@H]1Cc1ccccc1 [1295.264] | 7.5
O=C(Cc1ccccc1)NC1=NC[C@H](Cc2ccccc2)N1CC1CCC1 [1295.265] | 53.1
O=C(Cc1ccccc1)NC1=NC[C@H](Cc2ccccc2)N1CC1CCCC1 [1295.266] | 99.6
O=C(Cc1ccccc1)NC1=NC[C@H](Cc2ccccc2)N1CCCC1CCCC1 [1295.267] | 56.2
Cc1cccc(CC(=O)NC2=NC[C@H](Cc3ccccc3)N2CCc2ccccc2)c1 [1295.275] | 60.7
O=C(Cc1cccc(F)c1)NC1=NC[C@H](Cc2ccccc2)N1CCc1ccccc1 [1295.276] | 104.2
O=C(Cc1cccc(Br)c1)NC1=NC[C@H](Cc2ccccc2)N1CCc1ccccc1 [1295.277] | 97.6
O=C(Cc1ccc(F)cc1)NC1=NC[C@H](Cc2ccccc2)N1CCc1ccccc1 [1295.278] | 29.8
COc1cccc(CC(=O)NC2=NC[C@H](Cc3ccccc3)N2CCc2ccccc2)c1 [1295.279] | 75.2
